The results in this text go back to patent publication US12673041B2, “4-aminobut-2-enamide derivatives and salt thereof” (TAIHO PHARMACEUTICAL CO., LTD., priority 2019, dated 2026).

The target in test [1] is Gppcp-bound recombinant K-Ras4B G12C mutant protein (amino acids 1-169, C51S/C80L/C118S) (Homo sapiens, UniProt P01116, C118S/C51S/C80L/G12C). Briefly: KRASG12C binding assay (LC-MS compound binding rate). Conditions: test compound final concentration 0.5 μM, 25° C., 1 hour. How it is done: As test compounds for the KRASG12C binding assay, the compounds obtained in the “Preparation of Compounds” section were used. Sample solutions each containing a test compound were prepared in the form of a 10 mM DMSO solution.
Gppcp-bound recombinant K-Ras4B G12C mutant protein (amino acids 1-169, C51S/C80L/C118S, SEQ ID NO:1) was diluted with a buffer (1×TBS, 0.1 mM TCEP, 0.25 mM MgCl2, 50 μM Gppcp) to prepare a 50 nM protein solution. K-Ras4B is the major splicing variant of K-Ras. Amino acid sequence of residues 1 to 150 including the compounds' binding region of K-Ras4B is exactly same as that of K-Ras4A, the other splicing variant (Oncotarget. 2016 Jul. 19; 7(29): 46717-46733). A sample solution containing 10 mM test compound was diluted ten-fold with DMSO to make a 1 mM sample solution, and then diluted twenty-fold with DMSO to make a 50 μM sample solution. 1 μL of a 50 μM sample solution was added to 100 μL of a 50 nM protein solution to adjust the final concentration of a test compound to be 0.5 μM in the mixture. The mixtures were stored in an incubator at 25° C. for 1 hour, and 10 μL of a 1×TBS solution containing 2% formic acid was added to stop the reaction, followed by LC-MS measurement. LC-MS measurement was performed using Xevo G2-S Q-Tof manufactured by Waters, and reverse-phase chromatography was performed with a desalting column. A mass spectrum of positive ions was obtained by electrospray. For a mass spectrum, a spectrum of polyvalent ions was collectively converted to a molecular weight by using OpenLynx software by the MaxEnt technique, and a compound binding rate was calculated from the ratio of the signal intensity of a peak that corresponds to the molecular weight of the protein to the signal intensity of a peak that corresponds to the molecular weight of the protein conjugated with the compound.
The binding assay of the test compounds was conducted at a final concentration of 0.5 μM. A binding rate of 80% or more is rated “A”, a binding rate of 60% or more and less than 80% is rated “B”, a binding rate of 40% or more and less than 60% is rated “C”, a binding rate of 20% or more and less than 40% is rated “D”, and a binding rate of less than 20% is rated “E”. N.D.=not determined. Binding rate % is the ratio of KRAS signal intensity at the molecular weight of one molecule adduct to the sum of all the KRAS signal intensity (unbound form and adducts) in mass spectrum.
Thus, binding rate 100% means that only the one molecule adduct was observed without any unbound KRAS.

In test [2] the target is T1, GMPPNP-bound KRAS G12C protein and cRAF RAS-binding domain (cRAF-RBD) (Homo sapiens, UniProt P01116, G12C).
T1 construct: made in house; host or cells: E. coli
Description: Inhibitory activity on interaction between KRAS G12C and cRAF (Alpha technology). Format: biochemical. Conditions: GMPPNP-bound KRAS G12C incubated with compound at 25° C. for 1 hour, then cRAF-RBD, Alpha signal; read-out: IC50. Here is the method:
Interaction between recombinant K-Ras4B G12C mutant protein (amino acids 1-169, SEQ ID NO:2) and cRAF RAS-binding domain (cRAF-RBD, amino acids 50-132, Jena Biosciences GmbH) was measured using Alpha technology (PerkinElmer Inc.).
Recombinant KRAS G12C protein with an N-terminal His-tag was expressed in E. coli and purified by affinity chromatography. To prepare GTP-bound form and GDP-bound form of KRAS G12C protein, 50 μM KRAS G12C protein was incubated with 1 mM GMPPNP (Guanosine-5′-[(β,γ)-imido]triphosphate, Tetralithium salt) (Jena Bioscience GmbH) and 1 mM GDP, respectively, in a loading buffer (20 mM Tris-HCl (pH 7.5), 50 mM NaCl, 1 mM DTT and 2.5 mM EDTA) for 1 hour on ice. After the incubation, MgCl2 was added to a final concentration of 10 mM, followed by incubation at room temperature for 30 minutes. The mixture was allowed to pass through a NAP-5 column to remove free nucleotides and purified, and the resultant nucleotide-bound KRAS G12C protein was used for compound evaluation.
For the measurement of the inhibitory activity of compounds on interaction between KRAS G12C and cRAF-RBD, GMPPNP-bound KRAS G12C protein was incubated with various concentrations of compound in a reaction buffer (20 mM Tris-HCl (pH 7.5), 100 mM NaCl, 1 mM MgCl2, 1 mM TCEP, 0.1% Tween 20) at 25° C. for 1 hour. After the incubation, recombinant cRAF-RBD and Alpha detection reagents were added and incubated at room temperature for 1.5 hours for binding. Interaction 5 of KRAS G12C and cRAF-RBD was monitored by measuring Alpha signal. Inhibition % was calculated using the signal from the reaction without test compound (DMSO control) as 0% inhibition and the signal from the reaction using GDP-bound KRAS G12C in place of GMPPNP-bound KRAS G12C as 100% inhibition. IC50 values were calculated from dose titration curve using curve fitting by XLfit software (IDBS).

Structures are written as SMILES.

Broadly, the IC50 is the concentration at which inhibition is half-maximal.

In the case of `CO[C@H]1CC[C@H](NC/C=C/C(=O)Nc2ccc(C(=O)c3ccc4c(-c5c(Cl)cc6c(ncn6C)c5Cl)cccn34)cc2C#N)CC1` (single isomer, unassigned) [Example 63, (E)-N-(2-cyano-4-(8-(4,6-dichloro-1-methyl-1H-benzo[d]imidazol-5-yl)indolizine-3-carbonyl)phenyl)-4-(((1r,4r)-4-methoxycyclohexyl)amino)but-2-enamide], the binding rate result in test [1] was “A (A binding rate of 80% or more is rated “A”)”. Also, the IC50 in test [2] was found to be 0.21 µM.

As for `O=C(/C=C/CN[C@H]1CC[C@H](O)CC1)Nc1ccc(C(=O)Nc2cccc(Br)c2)cn1` [Comparative example 1, N-(3-bromophenyl)-6-((E)-4-(((1r,4r)-4-hydroxycyclohexyl)amino)but-2-enamido)nicotinamide, reference compound], in test [1], the binding rate result is listed as “E (a binding rate of less than 20% is rated “E”)”. For the same molecule, the IC50 in test [2] came to 20 µM.

Consider `C=CC(=O)Nc1ccc(C(=O)Nc2cccc(-c3cc4nc(COC)n(C)c4cc3C(F)(F)F)c2)cc1C#N` [Comparative example 2, reference compound], for which the binding rate result in test [1] was “E (a binding rate of less than 20% is rated “E”)”. The IC50 in test [2] is 15 µM.

For the molecule `CCc1nc2cc(-c3cccc(NC(=O)c4ccc(NC(=O)/C=C/CN(C)C(C)(C)C)c(C#N)c4)c3)c(C(F)(F)F)cc2n1C` [Example 2, (E)-4-(4-(tert-butyl(methyl)amino)but-2-enamido)-3-cyano-N-(3-(2-ethyl-1-methyl-6-(trifluoromethyl)-1H-benzo[d]imidazol-5-yl)phenyl)benzamide], in test [1], the binding rate entry is “D (a binding rate of 20% or more and less than 40% is rated “D”)”. Further, the IC50 in test [2] was 0.88 µM.

Regarding `CCc1nc2cc(-c3cccc4c3CCN4C(=O)c3ccc(NC(=O)/C=C/CN[C@H]4CC[C@H](OC)CC4)c(C#N)c3)c(C(F)(F)F)cc2n1C` [Example 10, (E)-N-(2-cyano-4-(4-(2-ethyl-1-methyl-6-(trifluoromethyl)-1H-benzo[d]imidazol-5-yl)indoline-1-carbonyl)phenyl)-4-(((1r,4r)-4-methoxycyclohexyl)amino)but-2-enamide], the binding rate entry in test [1] was “A (A binding rate of 80% or more is rated “A”)”. Moreover, the IC50 in test [2] amounted to 0.19 µM.

Take `COc1ccc(Cl)c(-c2cccc(NC(=O)c3ccc(NC(=O)/C=C/CNC4CCN(S(C)(=O)=O)CC4)c(C#N)c3)c2)c1OC` [Example 11, (E)-N-(6′-chloro-2′,3′-dimethoxy-[1,1′-biphenyl]-3-yl)-3-cyano-4-(4-((1-(methylsulfonyl)piperidin-4-yl)amino)but-2-enamido)benzamide]: the binding rate result in test [1] was “B (a binding rate of 60% or more and less than 80% is rated “B”)”. The IC50 in test [2] was found to be 0.63 µM.

As for `CCN(CC)[C@H]1CC[C@H](NC/C=C/C(=O)Nc2ccc(C(=O)Nc3cccc(-c4c(Cl)ccc5c4cnn5C)c3)cc2C#N)CC1` [Example 12, N-(3-(5-chloro-1-methyl-1H-indazol-4-yl)phenyl)-3-cyano-4-((E)-4-(((1r,4r)-4-(diethylamino)cyclohexyl)amino)but-2-enamido)benzamide], in test [1], the binding rate entry was “B (a binding rate of 60% or more and less than 80% is rated “B”)”. Moreover, the IC50 in test [2] worked out at 0.27 µM.

With `CCN(CC)[C@H]1CC[C@H](NC/C=C/C(=O)Nc2ccc(C(=O)Nc3cccc(-c4cc5nc(C)n(C)c5cc4Cl)c3)cc2F)CC1` [Example 13, N-(3-(6-chloro-1,2-dimethyl-1H-benzo[d]imidazol-5-yl)phenyl)-4-((E)-4-(((1r,4r)-4-(diethylamino)cyclohexyl)amino)but-2-enamido)-3-fluorobenzamide], in test [1], the binding rate result is “B (a binding rate of 60% or more and less than 80% is rated “B”)”. Further, in test [2], the IC50 came out at 0.41 µM.

For `O=C(/C=C/CN[C@H]1CC[C@H](O)CC1)Nc1ccc(C(=O)Nc2cccc(-c3cc4nc[nH]c4cc3Cl)c2)cn1` [Example 14, N-(3-(6-chloro-1H-benzo[d]imidazol-5-yl)phenyl)-6-((E)-4-(((1r,4r)-4-hydroxycyclohexyl)amino)but-2-enamido)nicotinamide], the binding rate result in test [1] was “D (a binding rate of 20% or more and less than 40% is rated “D”)”. Besides, the IC50 in test [2] came out at 0.83 µM.

As for `CCc1nc2c(Cl)c(-c3cccc(NC(=O)c4ccc(NC(=O)/C=C/CN[C@H]5CC[C@H](OC)CC5)c(C#N)c4)c3)c(C(F)(F)F)cc2n1C` [Example 15, N-(3-(4-chloro-2-ethyl-1-methyl-6-(trifluoromethyl)-1H-benzo[d]imidazol-5-yl)phenyl)-3-cyano-4-((E)-4-(((1r,4r)-4-methoxycyclohexyl)amino)but-2-enamido)benzamide], the binding rate entry in test [1] is on record as “A (A binding rate of 80% or more is rated “A”)”. Also, the IC50 in test [2] worked out at 0.2 µM.

Turning to `CO[C@H]1CC[C@H](NC/C=C/C(=O)Nc2ccc(C(=O)Nc3cccc(-c4cc5ncsc5cc4C)c3)cc2C#N)CC1` [Example 16, 3-cyano-4-((E)-4-(((1r,4r)-4-methoxycyclohexyl)amino)but-2-enamido)-N-(3-(6-methylbenzo[d]thiazol-5-yl)phenyl)benzamide], the binding rate result in test [1] was “C (a binding rate of 40% or more and less than 60% is rated “C”)”. In test [2], the IC50 is 0.7 µM.

Turning to `CS(=O)(=O)N1CCC(NC/C=C/C(=O)Nc2ccc(C(=O)Nc3cccc(-c4cc5nccn5cc4Cl)c3)cc2C#N)CC1` [Example 17, (E)-N-(3-(6-chloroimidazo[1,2-a]pyridin-7-yl)phenyl)-3-cyano-4-(4-((1-(methylsulfonyl)piperidin-4-yl)amino)but-2-enamido)benzamide], in test [1], the binding rate result is “B (a binding rate of 60% or more and less than 80% is rated “B”)”. Besides, the IC50 in test [2] came out at 0.075 µM.

Regarding `CO[C@H]1CC[C@H](NC/C=C/C(=O)Nc2ccc(C(=O)Nc3cc(F)c(F)c(-c4cc5ncn(C)c5cc4C)c3)cc2C#N)CC1` [Example 18, 3-cyano-N-(3-(1,6-dimethyl-1H-benzo[d]imidazol-5-yl)-4,5-difluorophenyl)-4-((E)-4-(((1r,4r)-4-methoxycyclohexyl)amino)but-2-enamido)benzamide], in test [1], the binding rate result is “A (A binding rate of 80% or more is rated “A”)”. The IC50 in test [2] was 0.14 µM.

For `CCN(CC)[C@H]1CC[C@H](NC/C=C/C(=O)Nc2ccc(C(=O)Nc3cccc(-c4cc5ncn(C)c5cc4Cl)c3)cc2C#N)CC1` [Example 19, N-(3-(6-chloro-1-methyl-1H-benzo[d]imidazol-5-yl)phenyl)-3-cyano-4-((E)-4-(((1r,4r)-4-(diethylamino)cyclohexyl)amino)but-2-enamido)benzamide], in test [1], the binding rate result was “A (A binding rate of 80% or more is rated “A”)”. The IC50 in test [2] is 0.034 µM.
